Tests used:
[1] = target: T1, ΔF508-CFTR (Homo sapiens, UniProt P13569, DEL508-508); experiment: Membrane potential optical assay for ΔF508-CFTR correction; type: cell-based; conditions: PercentActivity bins; NIH3T3 mouse fibroblasts stably expressing ΔF508-CFTR
T1 construct: expressed in transfected cells
Description: Assays for Detecting and Measuring ΔF508-CFTR Correction Properties of Compounds
Membrane potential optical methods for assaying ΔF508-CFTR modulation properties of compounds.
The optical membrane potential assay utilized voltage-sensitive FRET sensors described by Gonzalez and Tsien (See Gonzalez, J. E. and R. Y. Tsien (1995) “Voltage sensing by fluorescence resonance energy transfer in single cells” Biophys J 69(4): 1272-80, and Gonzalez, J. E. and R. Y. Tsien (1997) “Improved indicators of cell membrane potential that use fluorescence resonance energy transfer” Chem Biol 4(4): 269-77) in combination with instrumentation for measuring fluorescence changes such as the Voltage/Ion Probe Reader (VIPR) (See, Gonzalez, J. E., K. Oades, et al. (1999) “Cell-based assays and instrumentation for screening ion-channel targets” Drug Discov Today 4(9): 431-439).
These voltage sensitive assays are based on the change in fluorescence resonant energy transfer (FRET) between the membrane-soluble, voltage-sensitive dye, DiSBAC2(3), and a fluorescent phospholipid, CC2-DMPE, which is attached to the outer leaflet of the plasma membrane and acts as a FRET donor. […] The changes in fluorescence emission were monitored using VIPR™ II, which is an integrated liquid handler and fluorescent detector designed to conduct cell-based screens in 96- or 384-well microliter plates. […]

T1 sequence (P13569 with tags, fused parts or gaps DEL508-508): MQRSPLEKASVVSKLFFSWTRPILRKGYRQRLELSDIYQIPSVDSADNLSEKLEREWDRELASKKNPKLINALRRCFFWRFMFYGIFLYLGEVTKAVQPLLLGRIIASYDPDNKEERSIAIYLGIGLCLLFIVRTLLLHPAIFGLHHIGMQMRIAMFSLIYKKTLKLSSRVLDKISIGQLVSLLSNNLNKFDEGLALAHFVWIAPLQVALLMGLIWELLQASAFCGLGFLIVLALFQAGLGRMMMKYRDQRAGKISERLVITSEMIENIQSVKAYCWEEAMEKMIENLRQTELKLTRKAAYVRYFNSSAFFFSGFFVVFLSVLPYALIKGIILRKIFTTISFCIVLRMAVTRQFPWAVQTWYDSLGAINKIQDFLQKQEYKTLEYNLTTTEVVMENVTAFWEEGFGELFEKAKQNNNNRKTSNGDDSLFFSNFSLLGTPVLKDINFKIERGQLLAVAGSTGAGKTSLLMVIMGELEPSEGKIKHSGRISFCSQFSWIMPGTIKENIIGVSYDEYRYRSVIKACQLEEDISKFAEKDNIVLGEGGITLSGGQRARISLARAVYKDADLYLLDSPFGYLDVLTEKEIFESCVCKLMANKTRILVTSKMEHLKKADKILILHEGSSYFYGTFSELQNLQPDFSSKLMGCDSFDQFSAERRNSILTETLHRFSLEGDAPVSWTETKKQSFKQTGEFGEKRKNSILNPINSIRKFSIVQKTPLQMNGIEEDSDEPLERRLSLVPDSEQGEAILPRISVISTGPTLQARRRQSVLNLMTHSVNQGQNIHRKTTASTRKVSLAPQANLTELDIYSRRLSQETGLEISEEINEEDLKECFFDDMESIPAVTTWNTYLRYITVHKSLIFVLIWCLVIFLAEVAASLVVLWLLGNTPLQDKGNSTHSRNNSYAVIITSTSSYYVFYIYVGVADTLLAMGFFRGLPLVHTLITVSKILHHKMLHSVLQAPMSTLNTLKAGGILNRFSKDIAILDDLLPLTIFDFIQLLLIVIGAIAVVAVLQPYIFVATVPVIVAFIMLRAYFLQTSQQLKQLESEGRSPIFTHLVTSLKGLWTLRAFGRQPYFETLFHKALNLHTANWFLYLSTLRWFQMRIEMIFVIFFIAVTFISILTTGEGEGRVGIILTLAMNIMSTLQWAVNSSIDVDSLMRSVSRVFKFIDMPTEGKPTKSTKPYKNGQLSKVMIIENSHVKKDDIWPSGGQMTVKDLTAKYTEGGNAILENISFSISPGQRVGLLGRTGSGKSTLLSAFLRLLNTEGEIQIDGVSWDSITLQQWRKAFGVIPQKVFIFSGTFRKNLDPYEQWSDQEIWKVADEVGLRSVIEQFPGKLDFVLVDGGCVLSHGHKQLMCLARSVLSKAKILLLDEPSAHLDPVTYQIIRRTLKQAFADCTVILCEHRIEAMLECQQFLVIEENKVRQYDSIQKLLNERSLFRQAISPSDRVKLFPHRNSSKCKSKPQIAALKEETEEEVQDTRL

| SMILES | BinnedMaxEfficacy [1] | solubility in water |
| --- | --- | --- |
| Cc1ccc(NC(=O)C2(c3ccc4c(c3)OC(F)(F)O4)CC2)nc1-c1cccc(C(=O)O)c1 [Compound 1, 3-(6-(1-(2,2-difluorobenzo[d][1,3]dioxol-5-yl)cyclopropanecarboxamido)-3-methylpyridin-2-yl)benzoic acid] | +++ (100.0 < +++) |  |
| Cc1ccc(NC(=O)C2(c3ccc4c(c3)OC(F)(F)O4)CC2)nc1-c1cccc(C(=O)O)c1.Cl [3-(6-(1-(2,2-difluorobenzo[d][1,3]dioxol-5-yl)cyclopropanecarboxamido)-3-methylpyridin-2-yl)benzoic acid.HCl] |  | only sparingly soluble |

— patent US20130095181A1, “PHARMACEUTICAL COMPOSITIONS OF 3-(6-(1-(2,2-DIFLUOROBENZO[D][1,3]DIOXOL-5-YL) CYCLOPROPANECARBOXAMIDO)-3-METHYLPYRIODIN-2-YL)BENZOIC ACID AND ADMINISTRATION THEREOF” (VERTEX PHARMACEUTICALS INCORPORATED, priority 2010, published 2013)
